Measured values reported in patent US20220016200A1, “PHARMACEUTICAL COMPOSITION FOR THE TREATMENT OF CYSTIC FIBROSIS” (GALENUS G.H. AG, priority 2018, published 2022).
Bridge positions count the residues as written; N and C are the ends. Square brackets hold non-standard residues; d marks the D form. Peptide text beside a SMILES is read from it. * marks the point of attachment. Heptanoyl(5-Me) = CCC(C)CCCC(=O)*; Dab = NCC[C@H](N)C(=O)O

Key:
A. guillouiae 1285286 = test: Checkerboard colistin sulphate (CS) plus teicoplanin (TP), MIC/FIC and MBC/FBC; format: cell-based, Acinetobacter guillouiae; settings: Acinetobacter guillouiae, agent alone, CAMHB, 5*10^5 CFU/ml
Procedure: (§1) Checkerboard analysis to determine minimal inhibitory concentration (MIC)/fractional inhibitory concentration (FIC) and minimal […] (MBC)/fractional […] (FBC) values of colistin sulphate (CS) plus teicoplanin (TP) for 6 Gram-negative strains with a bacterial load 5(1-10)*10^5 CFU/ml in a cation-adjusted Mueller-Hinton broth (CAMHB). • a. Antimicrobial stock solutions were prepared using sterile distilled water • b. CS was added along the ordinate; TP was added along the abscissa to 96 well, flat bottom, polystyrene panels with no treatment. Colistin alone was tested in triplicates. • c. Serial 2-fold dilutions starting with 640 μg/ml CS and 640 μg/ml TP were made; 15 μl volume of the serial dilutions were added for each agent to the appropriate wells; final volume at 30 μl • d. For each agent tested alone an additional 15 μl media was added to the well. 30 μl were added in control wells where none of the agent was tested. The negative control well contains 150 μl media without any additions • e. From an overnight bacterial culture in tryptic soy broth, 100 μL was added to 10 mL of fresh tryptic soy broth. This was then incubated at 37° C. for 1.5 hour at 180 rpm. • f. Bacteria in 120 μl CAMHB were added to each well (end concentration 5(1-10)*10^5 CFU/ml) • g. Plates were incubated at 37° C. in an ambient air incubator for 24 h • h. Turbidity at OD600 is determined with a plate photometer • i. By using a one-time inoculator 3 μl from each well of the 96-well plate were transferred to three blood agar plates. The plates were incubated over night at 37° C. in an ambient air incubator • j. MIC values are defined as lowest concentration which restricts bacterial growth to OD600 ≤0.1 • k. MBC values were determined by visual reading the lowest concentration which inhibits 99.9% of the growth of bacteria in the wells • l. Determination of the fractional inhibitory concentration (FIC) index and fractional bactericidal concentration (FBC) index and characterization of antimicrobial interactions was assessed […]
(§2) FIC calculation was carried out as: (MIC of drug A, tested in combination)/(MIC of drug A, tested alone)+(MIC of drug B, tested in combination)/(MIC of drug B, tested alone). FBC calculation was carried out just as well […]
(§3) Interactive categories were calculated from checkerboard analysis using MIC results from testing each agent alone and MIC results from the combination wells adjacent to the wells with growth in them […]
b. Indifference; FIC/FBC>0.5 to<4.0 c. Antagonism; FIC/FBC≥4.0 d. A. guillouiae 1285286 (IHMA), colistin resistant

A. junii 1397597 = test: as above; format: cell-based, Acinetobacter junii; settings: Acinetobacter junii, 1397597; A. junii; agent alone; CAMHB, 5*10^5 CFU/ml; read-out: MBC
Procedure: as §1, with “MIC values are defined as lowest concentration which restricts bacterial growth to OD600 ≤0.1 • k. MBC values were determined by visual reading the lowest concentration which inhibits 99.9% of the growth of bacteria in the wells • l.” left out
as §3

S. maltophilia 1237289 = test: Checkerboard fusidic acid (FD) and colistin sulfate (CS), MIC/FIC; format: cell-based, Stenotrophomonas maltophilia; settings: for MIC: S. maltophilia 1237289, agent alone, CAMHB, 1*10^6 CFU/ml
Procedure: (§4) Checkerboard assays between fusidic acid (FD) and colistin sulfate (CS) with a bacterial load 5(1-10)*10^5 CFU/ml in cationic adapted Mueller Hinton broth (CAMHB). • a. Antimicrobial stock solutions were prepared using sterile distilled water; • b. CS was added along the ordinate; FD was added along the abscissa to 96 well, flat bottom, polystyrene panels with no treatment. Colistin alone was tested in triplicates; • c. Serial 2-fold dilutions starting with 640 […] CS and 640 μg/ml FD were made; 15 μl volume of the serial dilutions were added for each agent to the appropriate wells—final volume at 30 μl; • d. For each agent tested alone an additional 15 μl media was added to the well. 30 μl were added in control wells where none of the agent was tested. The negative control well contains 150 μl media without any additions; • e. From an overnight bacterial culture in tryptic soy broth, 100 μL was added to 10 mL of fresh tryptic soy broth. This was then incubated at 37° C. for 1.5 hour at 180 rpm; • f. Bacteria in 120 μl CAMHB were added to each well (end concentration 5(1-10)*10^5 CFU/ml); • g. Plates were incubated at 37° C. in an ambient air incubator for 24 h • h. Turbidity at OD600 is determined with a plate photometer • i. By using a one-time inoculator 3 μl from each well of the 96-well plate were transferred to three blood agar plates. The plates were incubated over night at 37° C. in an ambient air incubator; • j. MIC values are defined as lowest concentration which restricts bacterial growth to OD600≤0.1; • k. MBC values were determined by visual reading the lowest concentration which inhibits 99.9% of the growth of bacteria in the wells; • l. Determination of the fractional inhibitory concentration (FIC) index and fractional bactericidal concentration (FBC) index and characterization of antimicrobial interactions was assessed;
(§5) FIC calculation was carried out as: (MIC of drug A, tested in combination)/(MIC of drug A, tested alone)+(MIC of drug B, tested in combination)/(MIC of drug B, tested alone). FBC calculation was carried out just as well;
(§6) Interactive categories were calculated from checkerboard analysis using MIC results from testing each agent alone and MIC results from the combination wells adjacent to the wells with growth in them.
(§7) Determination of the fractional inhibitory concentration (FIC) index and fractional bactericidal concentration (FBC) index and characterization of antimicrobial interactions was assessed:
(§8) (ii) Indifference; FIC/FBC>0.5 to <4.0
(§9) (iii) Antagonism; FIC/FBC≥4.0
e. Stenotrophomonas maltophilia 1237289 (IHMA), colistin resistant (CS 2/4-4/8-8/8)

A. haemolyticus 1655843 [1] = test: Checkerboard colistin sulphate (CS) plus teicoplanin (TP), MIC/FIC and MBC/FBC; format: cell-based, Acinetobacter haemolyticus; settings: agent alone, CAMHB, 5*10^5 CFU/ml; for MIC: A. haemolyticus 1655843, 24 h
Procedure: as §1, §2, §3
b. Indifference; FIC/FBC>0.5 to<4.0 c. Antagonism; FIC/FBC≥4.0 c. A. haemolyticus 1655843 (IHMA), colistin resistant

A. haemolyticus 1655843 [2] = test: Checkerboard fusidic acid (FD) and colistin sulfate (CS), MIC/FIC and MBC/FBC; format: cell-based, Acinetobacter haemolyticus; settings: agent alone, CAMHB, 1*10^6 CFU/ml
Procedure: as §4, §5, §6, §7, §8, §9
c. Acinetobacter haemolyticus 1655843 (IHMA), colistin resistant (3xCS>16/>16-64/>64)

S. maltophilia 1221783 = test: Checkerboard fusidic acid (FD) and colistin sulfate (CS), MIC/FIC; format: cell-based, Stenotrophomonas maltophilia; settings: agent alone, CAMHB, 1*10^6 CFU/ml, 24 h
Procedure: Checkerboard assays between fusidic acid (FD) and colistin sulfate (CS) with a bacterial load 5(1-10)*10^5 CFU/ml in cationic adapted Mueller Hinton broth (CAMHB). • a. Antimicrobial stock solutions were prepared using sterile distilled water; • b. CS was added along the ordinate; FD was added along the abscissa to 96 well, flat bottom, polystyrene panels with no treatment. Colistin alone was tested in triplicates; • c. Serial 2-fold dilutions starting with 640 […] CS and 640 μg/ml FD were made; 15 μl volume of the serial dilutions were added for each agent to the appropriate wells—final volume at 30 μl; • d. For each agent tested alone an additional 15 μl media was added to the well. 30 μl were added in control wells where none of the agent was tested. […] Turbidity at OD600 is determined with a plate photometer • i. […] Determination of the fractional inhibitory concentration (FIC) index and fractional bactericidal concentration (FBC) index and characterization of antimicrobial interactions was assessed; […]
as §6
Determination of the fractional inhibitory concentration (FIC) index and fractional bactericidal concentration (FBC) index and characterization of antimicrobial interactions was assessed: […]

CCC(C)CCCC(=O)N[C@@H](CCN)C(=O)N[C@H](C(=O)N[C@@H](CCN)C(=O)N[C@H]1CCNC(=O)[C@H]([C@@H](C)O)NC(=O)[C@H](CCN)NC(=O)[C@H](CCN)NC(=O)[C@H](CC(C)C)NC(=O)[C@@H](CC(C)C)NC(=O)[C@H](CCN)NC1=O)[C@@H](C)O (stereo partly drawn) [CS, colistin sulphate] ({Heptanoyl(5-Me)}-[Dab]T[Dab][Dab][Dab][dL]L[Dab][Dab]T; lactam 4-C)
MBC (A. guillouiae 1285286; 1285286, A. guillouiae, read-out: MBC): 4 µg/mL | MIC (A. guillouiae 1285286; A. guillouiae 1285286, 24 h, read-out: MIC): 2 µg/mL | MBC (A. junii 1397597): 8 µg/mL | MIC (S. maltophilia 1237289; 24 h): 1 mg/1l | MIC (S. maltophilia 1237289; after 48 h growth (values in brackets)): (4) mg/1l | MBC (S. maltophilia 1237289; Stenotrophomonas maltophilia, 1237289, organism list of Example 3, Stenotrophomonas maltophilia 1237289, repeated determinations): 4 µg/mL | MIC (A. haemolyticus 1655843 [1]): >16 µg/mL | MIC (A. haemolyticus 1655843 [1]; listed as colistin): ≥ 4 µg/mL | MBC (A. haemolyticus 1655843 [1]; Acinetobacter haemolyticus, 1655843, A. haemolyticus, read-out: MBC): > 16 µg/mL | MIC (A. haemolyticus 1655843 [2]; A. haemolyticus 1655843, 24 h): 64 mg/1l | MBC (A. haemolyticus 1655843 [2]; Acinetobacter haemolyticus, 1655843, A. haemolyticus 1655843): > 64 µg/mL | MIC (S. maltophilia 1221783): 0.5 mg/1l
